Where a SMILES comes first, the peptide text is derived from it. [ ]: non-standard residue; d: D form. pGlu = O=C1CC[C@@H](C(=O)O)N1; Thz = O=C(O)[C@@H]1CSCN1
experiment: GHS categories as the set defines them, by LD50: 1 up to 5, 2 up to 50, 3 up to 300, 4 up to 2000, 5 above 2000 mg/kg; conditions: rat; in vivo; po

Structure (SMILES)	GHS category
O=C1CCCCCN1C(=O)NCCCCCCNC(=O)N1CCCCCC1=O	5
CCCCCC(=O)[Si](C)(C)C	5
CNC(=O)C(=NNc1cccc(C)c1)C(C)=O	5
COC(=O)Nc1nc2ccc(OCc3ccccc3)cc2[nH]1	5
CCC(=O)O[C@]1(C(=O)SCF)[C@H](C)C[C@H]2C3C[C@H](F)C4=CC(=O)C=C[C@]4(C)[C@@]3(F)[C@@H](O)C[C@@]21C (stereo partly drawn)	5
C=CC(C)(O)CC/C=C(\C)CC/C=C(\C)CCC=C(C)C (stereo not drawn)	5
CC(=O)Nc1cc(NS(=O)(=O)C(F)(F)F)c(C)cc1C	5
CCCCCC1C(=O)CCC1CC(=O)OC (stereo not drawn)	5
CC[C@H]1OC(=O)[C@H](C)[C@@H](O[C@H]2C[C@@](C)(OC)[C@@H](O)[C@H](C)O2)[C@H](C)[C@@H](O[C@@H]2O[C@H](C)C[C@H](N(C)C)[C@H]2O)[C@](C)(O)C[C@@H](C)CN(C)[C@H](C)[C@@H](O)[C@]1(C)O	5
O=NNC1=NCCN1Cc1ccc(Cl)nc1	5
CNCC1CCC(N)C(OC2C(N)CC(N)C(OC3OCC(C)(O)C(NC)C3O)C2O)O1 (stereo not drawn)	5
CC1C(C)(C)C2=C(C3OCOCC3CC2)C1(C)C (stereo not drawn)	5
Oc1c(Br)ccc2c(O)c(Br)ccc12	5
CNS(=O)(=O)c1ccccc1-c1nnc(N)s1	5
Oc1ccc(OCc2ccccc2)cc1	5
CCCCCCc1ccc(OP(=O)(Oc2ccccc2)Oc2ccccc2)cc1	5
CN(C(=O)CC(=O)N(C)c1c(I)c(C(=O)NC(CO)C(O)CO)c(I)c(C(=O)NC(CO)C(O)CO)c1I)c1c(I)c(C(=O)NC(CO)C(O)CO)c(I)c(C(=O)NC(CO)C(O)CO)c1I (stereo not drawn)	5
CCCCn1cc2c3c(cccc31)[C@@]1(OC)C[C@@H](COC(=O)c3cncc(Br)c3)CN(C)[C@@H]1C2	4
CC(C)(O)CCC(C)(C)O	5
CCCC1OC(Cn2cncn2)(c2cc3ccccc3o2)OCC1(C)C (stereo not drawn)	4
Cc1ccc2c(c1)C(=O)C(C)C2 (stereo not drawn)	5
O=C1c2ccccc2C(=O)C1c1ccc2ccccc2n1	5
CC(=O)S[C@@H]1CC2=CC(=O)CC[C@]2(C)[C@H]2CC[C@@]3(C)[C@@H](CC[C@@]34CCC(=O)O4)[C@H]12	4
CC(C)=CCC(C#N)(CCN(C)C)c1cccc2ccccc12 (stereo not drawn)	4
CCOC(=O)[C@H](CCc1ccccc1)N[C@H]1CS[C@H](c2cccs2)CN(CC(=O)O)C1=O	5

Structure (SMILES)	GHS category
COc1nc(C)nc(=NC(O)=NS(=O)(=O)c2ccccc2C(=O)O)[nH]1	5
O=C1CC(=O)NC(=O)N1	5
CC12CCCC(O)(C1)C1CC(C)(C)C1CC2 (stereo not drawn)	5
COC(=O)c1ccc(C(=O)Nc2cc(Cl)ccc2Cl)cc1[N+](=O)[O-]	4
C#CCN1C(=O)COc2cc(F)c(N3C(=O)C4=C(CCCC4)C3=O)cc21	5
Brc1nc[nH]c1Br	4
C=C(C)CCCC(C)CCOC(C)=O (stereo not drawn)	5
CO/N=C(/C(=O)N[C@@H]1C(=O)N2C(C(=O)O)=C(CSc3cnns3)CS[C@H]12)c1csc(N)n1	5
Cc1cccc2ncc(C(=O)Nc3ccccc3)c(=O)n12	3
CCNc1nc(Nc2ccccc2)nc(Nc2ccc(C=Cc3ccc(Nc4nc(NCC)nc(Nc5ccccc5)n4)cc3S(=O)(=O)O)c(S(=O)(=O)O)c2)n1	5
O=C(CCc1ccc2c(c1)OCO2)C1C(=O)CC(c2ccccc2)CC1=O (stereo not drawn)	5
CC[C@H]1C[C@@H]2CC[C@@H](O2)[C@@H](C)C(=O)O[C@H](CC)C[C@H]2CC[C@H](O2)[C@H](C)C(=O)O[C@@H](CC)C[C@@H]2CC[C@@H](O2)[C@@H](C)C(=O)O[C@H](CC)C[C@H]2CC[C@H](O2)[C@H](C)C(=O)O1	5
CC1Oc2cc(C(=O)c3ccc(Cl)cc3)ccc2N(C)C1=O (stereo not drawn)	5
O=C=Nc1cc(Cl)cc(Cl)c1	5
CC(=O)NCc1c(I)c(NC(C)=O)c(I)c(C(=O)O)c1I	5
C/C=C(\C)C(=O)OCC	5
CCCCCCCCCCCCCCCC(=O)OC[C@@H](O)[C@H]1OC[C@H](O)[C@H]1O	5
CC(=O)Nc1ccc(/N=N/c2c(S(=O)(=O)O)cc3cc(NC(=O)Nc4ccc5c(O)c(/N=N/c6ccccc6)c(S(=O)(=O)O)cc5c4)ccc3c2O)cc1	5
O=C(O)NN1C(CCCOc2ccc(F)cc2)C[C@H](O)[C@@H]2CCCC[C@H]21 (stereo partly drawn)	5
COCc1ccc(C=O)o1	5
COc1cc(Cl)c(OC)cc1Cl	5
Nc1nc(/C(=C/CC(=O)O)C(=O)N[C@@H]2C(=O)N3C(C(=O)O)=CCS[C@H]23)cs1	5
CCCCC(=O)O[C@]1(C(=O)CO)[C@@H](C)C[C@H]2[C@@H]3CCC4=CC(=O)C=C[C@]4(C)[C@@]3(F)[C@@H](O)C[C@@]21C	5
CN(C)CCSc1nc2ccccc2cc1-c1ccccc1	4
CCCc1c(Cc2ccc(-c3ccccc3-c3nn[nH]n3)cc2)cnc2ncnn12	4

Structure (SMILES)	GHS category
CCOC(=O)C(C)O (stereo not drawn)	5
Cc1cc(C(=O)Nc2ccccc2C(F)(F)F)n[nH]1	5
O=C1CC[C@@H](C(=O)N2CSC[C@H]2C(=O)O)N1 ([pGlu]-[Thz]-OH)	5
O=C(Cc1cccs1)N[C@@H]1C(=O)N2C(C(=O)O)=C(CO)CS[C@H]12	5
CC(C)[C@@H]1CC[C@@H](C)C[C@H]1OC(=O)Cc1ccccc1	5
COc1c(C)c(O)c(C)c(C)c1C(=O)Oc1c(C)c(C)c(C(=O)Oc2c(C)c(C)c(C(=O)O)c(OC)c2C)c(O)c1C	4
CC(C)=CCC/C(C)=C/COC(=O)C(C)C	5
CC[N+](CC)(CC)CCOc1cccc(OCC[N+](CC)(CC)CC)c1OCC[N+](CC)(CC)CC	4
Nc1ccc(S(=O)(=O)c2ccc(NCCO)cc2)cc1	5
Cc1cc(OP(Oc2cc(C)c(C(C)(C)C)cc2C(C)(C)C)Oc2cc(C)c(C(C)(C)C)cc2C(C)(C)C)c(C(C)(C)C)cc1C(C)(C)C	5
COc1ccc2c(c1)CCN(c1ccccc1)C2c1ccc(OCc2ccccc2)cc1 (stereo not drawn)	4
Oc1ccc2c(c1)CCN(c1ccccc1)C2c1ccc(F)cc1 (stereo not drawn)	4
CCCCC(CC)COC(=O)C1CCC(C(=O)OCC(CC)CCCC)CC1 (stereo not drawn)	5
CCCc1c(Cc2ccc(-c3ccccc3-c3nn[nH]n3)cc2)c(OCCOC)nc2ncnn12	4
O=C(O)[C@H]1O[C@@H](O)[C@@H](O)[C@@H](O)[C@@H]1O	5
CC(C)(C)c1ccc2oc(-c3ccc(C=Cc4ccc(-c5ccccc5)cc4)cc3)nc2c1	5
N#CC(CCc1ccc(Cl)cc1)(Cn1cncn1)c1ccccc1 (stereo not drawn)	5
C=CC(=O)OCCOCC(CC)(COCCOC(=O)C=C)COCCOC(=O)C=C	5
CCCCCCOC(=O)C(C)(C)C	5
CC1=C(CCC(=O)O)c2cc3[nH]c(cc4nc(cc5[nH]c(cc1n2)c(C)c5C(C)O)C(C)=C4C(C)O)c(C)c3CCC(=O)O (stereo not drawn)	5
COC(=O)c1ccc(C(=O)O)cc1[N+](=O)[O-]	5
CCC(C)(C)c1ccccc1	5
CCCC(CCC)C(=O)Oc1cc(C)ccc1C(C)C	5
